Tests used:
Format in all cases: biochemical
[1] = target: T1, RidA (Salmonella enterica, UniProt Q7CP78); test: coupled: 2AA generated by Ilv1p([…]-576) from L-serine, pyruvate at A230; conditions: 50 mM CHES pH 9.5, 0.6 µM Ilv1p, 1.3 µM RidA
T1 construct: purified RidA, preparation described in earlier work
T1 sequence (Q7CP78 1-128): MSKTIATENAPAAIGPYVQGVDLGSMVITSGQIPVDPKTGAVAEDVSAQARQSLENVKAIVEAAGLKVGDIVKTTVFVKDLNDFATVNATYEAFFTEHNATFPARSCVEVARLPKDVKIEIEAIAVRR

[2] = target: T2, Mmf1p(21−147) (Saccharomyces cerevisiae, UniProt P40185); test: as above; conditions: 50 mM CHES pH 9.5, 0.6 µM Ilv1p, 1.3 µM Mmf1p
T2 construct: gene MMF1
T2 sequence (P40185 21-145): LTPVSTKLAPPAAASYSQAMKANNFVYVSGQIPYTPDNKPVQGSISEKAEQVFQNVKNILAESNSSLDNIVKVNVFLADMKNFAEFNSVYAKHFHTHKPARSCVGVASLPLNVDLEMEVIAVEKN

[3] = target: T3, Ilv1p(46−576) (Saccharomyces cerevisiae, UniProt P00927); test: pyruvate formation at A230, Michaelis-Menten fit; conditions: 50 mM potassium phosphate pH 8
T3 construct: gene ILV1
T3 sequence (P00927 46-576): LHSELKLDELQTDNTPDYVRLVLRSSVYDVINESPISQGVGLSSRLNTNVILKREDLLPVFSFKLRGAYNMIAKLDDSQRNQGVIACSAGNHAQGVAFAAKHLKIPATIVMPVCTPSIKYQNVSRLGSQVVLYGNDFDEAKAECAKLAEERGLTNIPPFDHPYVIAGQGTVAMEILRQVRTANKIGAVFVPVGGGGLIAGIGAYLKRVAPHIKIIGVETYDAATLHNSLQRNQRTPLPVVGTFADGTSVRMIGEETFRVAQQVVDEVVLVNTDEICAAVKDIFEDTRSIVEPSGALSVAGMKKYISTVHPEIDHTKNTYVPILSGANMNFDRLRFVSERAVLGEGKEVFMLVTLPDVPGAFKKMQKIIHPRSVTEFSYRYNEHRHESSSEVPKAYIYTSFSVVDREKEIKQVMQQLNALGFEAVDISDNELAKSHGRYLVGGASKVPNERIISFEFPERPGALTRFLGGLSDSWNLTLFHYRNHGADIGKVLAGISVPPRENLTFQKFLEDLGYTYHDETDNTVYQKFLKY

[4] = target: T3, Ilv1p(46−576); conditions: 120 mM L-serine, 50 mM potassium phosphate pH 8; allosteric

SMILES: C=C(N)C(=O)O [2-aminoacrylate]
- coupled: 2AA generated by Ilv1p(46-576) from L-serine, pyruvate at A230 [1]: 2AA-hydrolyzing activity of Mmf1p was indistinguishable from that of the well-characterized RidA enzyme
- coupled: 2AA generated by Ilv1p(46-576) from L-serine, pyruvate at A230 [2]: released 2AA, which Mmf1p used as a substrate

SMILES: N[C@@H](CO)C(=O)O [L-serine]
- pyruvate formation at A230, Michaelis-Menten fit [3]: In vitro, Ilv1p dehydrated serine and released 2AA

SMILES: CC[C@H](C)[C@H](N)C(=O)O [isoleucine]
- inhibition at 3.3 mM [4]: insensitive to isoleucine concentrations that completely inhibited the wild-type enzyme

— article PMC5829821, “Mmf1p Couples Amino Acid Metabolism to Mitochondrial DNA Maintenance in Saccharomyces cerevisiae” (mBio, 2018)
